From US9655990B2, “Polymer based hydrogel” (YEDITEPE UNIVERSITESI, priority 2013, dated 2017)

How the values were obtained:
L929 (Mouse Fibroblast) = test: In vitro wound healing scratch assay, L929 cells; format: cell-based
Experimental: (§1) In order to determine the effect of the gel on wound healing, its capacity for cell migration and wound closure was analyzed by using the scratch assay described in the literature (Walter et al. 2010). […] The cells were seeded onto 12 well culture plates at a concentration of 100,000 cells/well, and by storing them in a carbon dioxide incubator so that they were enabled to attach and reach the sufficient density. Scratches were formed by using 200 μl pipette tip such that they will be perpendicular to the horizontal lines drawn by an acetate pen from the center of the wells to the outside of the wells. Gel combination was applied on the cells and scratch closure was observed. Setrach closure (FIG. 6-7) was analyzed by using NIH Image program upon photographing the regions of the straches which correspond to the lines drawn by an acetate pen and which are in the field of view of the microscope at 0, 12 and 24 hours.

malondialdehyde = test: Malondialdehyde (MDA) level in treated cells; format: cell-based; conditions: in comparison to the control group
Experimental: (§2) Antioxidant parameters were determined by glutathione peroxidase and superoxide dismutase enzyme activity assay and analysis of the MDA (malondialdehyde) levels. The cells which were subjected to the gel combination, to the active agent and only to the medium for control purposes in 6-well culture plates were collected and protein isolation was performed from the cell pellet by determined by measuring absorbance and drawing a standard curve at 595 nm wavelength with Bradford solution in 96-well ELISA plates by using bovine albumin protein standards (0.125, 0.25, 0.5, 0.75, 1.0, 1.5, 2.0 mg/ml). The enzyme activity assays and MDA levels were determined such that they wilt comply with the protocols given in commercials kits (FIG. 9).

Bax and p53 genes = test: Real time PCR, apoptotic gene levels; format: cell-based
Experimental: (§3) Real time PCR (Polymerase Chain Reaction) analyses were performed according to the literature by using SYBR Green method (Yalvac et al, 2010). The primers belonging to the collagen, fibronectin, laminin, Akt, Bax and P53 genes were designed using Primer BLAST software (The National Center for Biotechnology=NCBI). Total RNAs were isolated from the cells on which gel combination was applied and cDNA was synthesized. The synthesized cDNAs were mixed with primers in SYBR Green mix solution such that the final volume will be 20 μl and the expression levels of the genes (FIG. 8) were analyzed by using BIO-RAD device.

Akt gene = test: Real time PCR, Akt gene level; format: cell-based
Experimental: as §3

L929-HUVEC co-culture = test: In vitro wound healing scratch assay, L929-HUVEC co-culture; format: cell-based
Experimental: as §1

HF (Human Fibroblast) = test: In vitro wound healing scratch assay, human fibroblast cells; format: cell-based
Experimental: as §1

glutathione peroxidase = test: Glutathione peroxidase enzyme activity assay in treated cells; format: cell-based; conditions: in comparison to the control group
Experimental: as §2

superoxide dismutase = test: Superoxide dismutase enzyme activity assay in treated cells; format: cell-based; conditions: determined indirectly
Experimental: as §2

For sodium pentaborate pentahydrate, the wound closure (L929 (Mouse Fibroblast); 12 hours) was 71%, the wound closure rate (L929 (Mouse Fibroblast); 24 hours) was 84% and the karyotype (human fibroblast cells) was “maintained their normal karyotypes”. The malondialdehyde levels (malondialdehyde) was “low MDA levels”, the “apoptotic gene levels (Bax, p53)” value (Bax and p53 genes) was “decreased” and the akt gene levels (Akt gene) was “decreased”. For the same substance, the wound closure rate (L929-HUVEC co-culture; 12 hours) was 59%, the wound closure rate (L929-HUVEC co-culture; 24 hours) was 100% and the wound closure rate (HF (Human Fibroblast); 12 hours) was 58%. For the same substance, the wound closure rate (HF (Human Fibroblast); 24 hours) was 91%, the “glutathione peroxidase enzyme activity” value (glutathione peroxidase) was “substantial amount of enzyme activity” and the “superoxide dismutase enzyme activity” value (superoxide dismutase) was “high level of enzyme activity”.
